Reference: patent US6355799B1, “Substituted benzene compounds, process for their preparation, and herbicidal and defoliant compositions containing them” (ISK Americas Incorporated, priority 1997, dated 2002)

What was measured:
Assay type in all cases: in vivo
[1] = tested on: field corn (Zea mays L., var. Dekalb 535, CORN); test: Post-emerge test, crop safety; details: phytotoxicity rating 0-100 (0 no damage, 100 complete death), 14 days after application
Method in brief: (§1)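 Rating: 0–100 visual injury, 14 DAA. Application: acetone, 187 l/ha, 15–1000 g ai/ha, flat-fan track sprayer with nozzle 40–45 cm above soil or canopy. Post-emerge runs used 0.25% v/v surfactant on 2–3 leaf plants.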

[2] = tested on: upland rice (Oryza sp., var. Tebonnet, RICE); test: Post-emerge test, crop safety; details: phytotoxicity rating 0-100 (0 no damage, 100 complete death), 14 days after application
Method in brief: as §1

[3] = tested on: sicklepod (Cassia obtusifolia, CASOB); test: Post-emerge test, greenhouse herbicide activity screening; details: phytotoxicity rating 0-100 (0 no damage, 100 complete death), 14 days after application
Method in brief: (§2)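 Applied at 15–1000 g ai/ha from acetone in 187 l/ha spray volume. Post-emergence applications included 0.25% v/v non-ionic surfactant and reached plants sown 8–21 days before. Pre-emergence applications were incorporated by surface watering. Efficacy or crop damage was rated on a 0–100 scale after 14 days.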

[4] = tested on: green foxtail (Setaria viridis, SETVI); test: as above; details: phytotoxicity rating 0-100 (0 no damage, 100 complete death), 14 days after application
Method in brief: as §2

[5] = tested on: large crabgrass (Digitaria sanguinalis, DIGSA); test: as above; details: phytotoxicity rating 0-100 (0 no damage, 100 complete death), 14 days after application
Method in brief: as §2

[6] = tested on: johnsongrass (Sorghum halepense, SORHA); test: as above; details: phytotoxicity rating 0-100 (0 no damage, 100 complete death), 14 days after application
Method in brief: as §2

[7] = tested on: velvetleaf (Abutilon theophrasti, ABUTH); test: as above; details: phytotoxicity rating 0-100 (0 no damage, 100 complete death), 14 days after application
Method in brief: as §2

[8] = tested on: common ragweed (Ambrosia artemisizfolia L., AMBEL); test: as above; details: phytotoxicity rating 0-100 (0 no damage, 100 complete death), 14 days after application
Method in brief: as §2

[9] = tested on: barnyardgrass (Echinochloa crus-galli, ECHCG); test: as above; details: phytotoxicity rating 0-100 (0 no damage, 100 complete death), 14 days after application
Method in brief: as §2

[10] = tested on: lambsquarters (Chenopodium album, CHEAL); test: as above; details: phytotoxicity rating 0-100 (0 no damage, 100 complete death), 14 days after application
Method in brief: as §2

[11] = tested on: redroot pigweed (Amaranthus retroflexus, AMARE); test: as above; details: phytotoxicity rating 0-100 (0 no damage, 100 complete death), 14 days after application
Method in brief: as §2

[12] = tested on: ivyleaf morningglory (Ipomoea hederacea, IPOHE); test: as above; details: phytotoxicity rating 0-100 (0 no damage, 100 complete death), 14 days after application
Method in brief: as §2

[13] = tested on: field corn (Zea mays L., var. Dekalb 535, CORN); test: Pre-emerge test, crop safety; details: pre-emerge, rated 14 days after application, 0 = no damage, 100 = complete death
Method in brief: (§3)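 Visual ratings on a 0-100 scale (0 no damage, 100 all plants dead) were taken at 14 days after treatment. Rates of 15-1000 g ai/ha in acetone, 187 l/ha, were sprayed onto soil one day after planting (pre-emerge) or onto 2-3 leaf plants with 0.25% v/v surfactant (post-emerge).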

[14] = tested on: upland rice (Oryza sp., var. Tebonnet, RICE); test: Pre-emerge test, crop safety; details: pre-emerge, rated 14 days after application, 0 = no damage, 100 = complete death
Method in brief: as §3

[15] = tested on: sicklepod (Cassia obtusifolia, CASOB); test: Pre-emerge test, greenhouse herbicide activity screening; details: pre-emerge, rated 14 days after application, 0 = no damage, 100 = complete death
Method in brief: (§4)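 Compounds in acetone were track-sprayed at 15–1000 g ai/ha: pre-emergence onto soil sown the previous day, then top-watered to incorporate and later bottom-watered; post-emergence onto 2–3 leaf plants with 0.25% v/v surfactant, bottom-watered only. Ratings on a 0–100 phytotoxicity scale were taken at day 14.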

[16] = tested on: green foxtail (Setaria viridis, SETVI); test: as above; details: pre-emerge, rated 14 days after application, 0 = no damage, 100 = complete death
Method in brief: as §4

[17] = tested on: large crabgrass (Digitaria sanguinalis, DIGSA); test: as above; details: pre-emerge, rated 14 days after application, 0 = no damage, 100 = complete death
Method in brief: as §4

[18] = tested on: johnsongrass (Sorghum halepense, SORHA); test: as above; details: pre-emerge, rated 14 days after application, 0 = no damage, 100 = complete death
Method in brief: as §4

[19] = tested on: velvetleaf (Abutilon theophrasti, ABUTH); test: as above; details: pre-emerge, rated 14 days after application, 0 = no damage, 100 = complete death
Method in brief: as §4

[20] = tested on: barnyardgrass (Echinochloa crus-galli, ECHCG); test: as above; details: pre-emerge, rated 14 days after application, 0 = no damage, 100 = complete death
Method in brief: as §4

[21] = tested on: lambsquarters (Chenopodium album, CHEAL); test: as above; details: pre-emerge, rated 14 days after application, 0 = no damage, 100 = complete death
Method in brief: as §4

[22] = tested on: ivyleaf morningglory (Ipomoea hederacea, IPOHE); test: as above; details: pre-emerge, rated 14 days after application, 0 = no damage, 100 = complete death
Method in brief: as §4

[23] = tested on: redroot pigweed (Amaranthus retroflexus, AMARE); test: as above; details: pre-emerge, rated 14 days after application, 0 = no damage, 100 = complete death
Method in brief: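 Compounds in acetone were track-sprayed at 187 l/ha, 15–1000 g ai/ha, onto sandy loam pots. Pre-emerge seeds were sown one day before spraying, with surface watering afterwards. Post-emerge plants were at the 2–3 leaf stage and sprayed with 0.25% v/v non-ionic surfactant. Injury was rated 0–100 at 14 days.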

For CCn1c(C(F)(F)F)cc(=O)n(-c2c(F)cc(Cl)c(OC)c2N)c1=O [Compound 1-15], the “Post-emerge Herbicidal Activity CORN (crop damage)” value ([1]; 63 g ai/ha) was 0, the “Post-emerge Herbicidal Activity CORN (crop damage)” value ([1]; 250 g ai/ha) was 0 and the “Post-emerge Herbicidal Activity RICE (crop damage)” value ([2]; 63 g ai/ha) was 0. For the same compound, the “Post-emerge Herbicidal Activity RICE (crop damage)” value ([2]; 250 g ai/ha) was 0, the “Post-emerge Herbicidal Activity CASOB” value ([3]; 63 g ai/ha) was 0 and the “Post-emerge Herbicidal Activity CASOB” value ([3]; 250 g ai/ha) was 0. For the same compound, the “Post-emerge Herbicidal Activity SETVI” value ([4]; 63 g ai/ha) was 0, the “Post-emerge Herbicidal Activity SETVI” value ([4]; 250 g ai/ha) was 0 and the “Post-emerge Herbicidal Activity DIGSA” value ([5]; 63 g ai/ha) was 0. The “Post-emerge Herbicidal Activity DIGSA” value ([5]; 250 g ai/ha) was 0, the “Post-emerge Herbicidal Activity SORHA” value ([6]; 63 g ai/ha) was 0 and the “Post-emerge Herbicidal Activity SORHA” value ([6]; 250 g ai/ha) was 0. The “Post-emerge Herbicidal Activity ABUTH” value ([7]; 63 g ai/ha) was 30, the “Post-emerge Herbicidal Activity ABUTH” value ([7]; 250 g ai/ha) was 50 and the “Post-emerge Herbicidal Activity AMBEL” value ([8]; 63 g ai/ha) was 0. For the same compound, the “Post-emerge Herbicidal Activity AMBEL” value ([8]; 250 g ai/ha) was 0, the “Post-emerge Herbicidal Activity ECHCG” value ([9]; 63 g ai/ha) was 0 and the “Post-emerge Herbicidal Activity ECHCG” value ([9]; 250 g ai/ha) was 0. For the same compound, the “Post-emerge Herbicidal Activity CHEAL” value ([10]; 63 g ai/ha) was 0, the “Post-emerge Herbicidal Activity CHEAL” value ([10]; 250 g ai/ha) was 20 and the “Post-emerge Herbicidal Activity AMARE” value ([11]; 63 g ai/ha) was 0. The “Post-emerge Herbicidal Activity AMARE” value ([11]; 250 g ai/ha) was 30, the “Post-emerge Herbicidal Activity IPOHE” value ([12]; 63 g ai/ha) was 0 and the “Post-emerge Herbicidal Activity IPOHE” value ([12]; 250 g ai/ha) was 40. The “Pre-emerge crop damage CORN (phytotoxicity rating, scale 0-100)” value ([13]; 63 g ai/ha) was 0, the “Pre-emerge crop damage CORN (phytotoxicity rating, scale 0-100)” value ([13]; 250 g ai/ha) was 0 and the “Pre-emerge crop damage RICE (phytotoxicity rating, scale 0-100)” value ([14]; 63 g ai/ha) was 10. For the same compound, the “Pre-emerge crop damage RICE (phytotoxicity rating, scale 0-100)” value ([14]; 250 g ai/ha) was 30, the “Pre-emerge Herbicidal Activity CASOB (phytotoxicity rating, scale 0-100)” value ([15]; 63 g ai/ha) was 0 and the “Pre-emerge Herbicidal Activity CASOB (phytotoxicity rating, scale 0-100)” value ([15]; 250 g ai/ha) was 0. The “Pre-emerge Herbicidal Activity SETVI (phytotoxicity rating, scale 0-100)” value ([16]; 63 g ai/ha) was 70, the “Pre-emerge Herbicidal Activity SETVI (phytotoxicity rating, scale 0-100)” value ([16]; 250 g ai/ha) was 80 and the “Pre-emerge Herbicidal Activity DIGSA (phytotoxicity rating, scale 0-100)” value ([17]; 63 g ai/ha) was 0. For the same compound, the “Pre-emerge Herbicidal Activity DIGSA (phytotoxicity rating, scale 0-100)” value ([17]; 250 g ai/ha) was 90, the “Pre-emerge Herbicidal Activity SORHA (phytotoxicity rating, scale 0-100)” value ([18]; 63 g ai/ha) was 0 and the “Pre-emerge Herbicidal Activity SORHA (phytotoxicity rating, scale 0-100)” value ([18]; 250 g ai/ha) was 20. For the same compound, the “Pre-emerge Herbicidal Activity ABUTH (phytotoxicity rating, scale 0-100)” value ([19]; 63 g ai/ha) was 20, the “Pre-emerge Herbicidal Activity ABUTH (phytotoxicity rating, scale 0-100)” value ([19]; 250 g ai/ha) was 90 and the “Pre-emerge Herbicidal Activity ECHCG (phytotoxicity rating, scale 0-100)” value ([20]; 63 g ai/ha) was 0. For the same compound, the “Pre-emerge Herbicidal Activity ECHCG (phytotoxicity rating, scale 0-100)” value ([20]; 250 g ai/ha) was 0, the “Pre-emerge Herbicidal Activity CHEAL (phytotoxicity rating, scale 0-100)” value ([21]; 63 g ai/ha) was 40 and the “Pre-emerge Herbicidal Activity CHEAL (phytotoxicity rating, scale 0-100)” value ([21]; 250 g ai/ha) was 50. For the same compound, the “Pre-emerge Herbicidal Activity IPOHE (phytotoxicity rating, scale 0-100)” value ([22]; 63 g ai/ha) was 0, the “Pre-emerge Herbicidal Activity IPOHE (phytotoxicity rating, scale 0-100)” value ([22]; 250 g ai/ha) was 0 and the “Pre-emerge Herbicidal Activity AMARE (phytotoxicity rating, scale 0-100)” value ([23]; 63 g ai/ha) was 0. For the same compound, the “Pre-emerge Herbicidal Activity AMARE (phytotoxicity rating, scale 0-100)” value ([23]; 250 g ai/ha) was 20.
